From patent publication US11034725B2, “Compositions and methods for treating cardiovascular disease” (Genentech, Inc., priority 2016, dated 2021) come the findings set out here.

Numbered stars: 1 amine (or outer) side, 2 acyl side, 3 side chain; on linkers, the order of the positions; unused ones are H or OH. Square brackets hold non-standard residues; d marks the D form. Peptide text beside a SMILES is read from it. * marks the point of attachment. Propanoyl(3-(4-MeO-Ph)) = COc1ccc(CCC(=O)*)cc1; Propanoyl(3-(4-Cl-Ph)) = O=C(CCc1ccc(Cl)cc1)*; X43 = CS(=O)(=O)c1ccc(C(=O)CCC(=O)*)cc1; Desaminohistidyl = O=C(CCc1c[nH]cn1)*; Pentanoyl(5-Ph) = O=C(CCCCc1ccccc1)*; Propanoyl(3-cHex) = O=C(CCC1CCCCC1)*; X17 = O=C([C@H]1C[C@@H]1c1cccnc1)*; X14 = O=C(CC1CCN([*:1])CC1)[*:2]; hArg = N=C(N)NCCCC[C@H](N)C(=O)O; X37 = Cc1ccc(C(=O)CCC(=O)*)cc1; X39 = O=C(C1CCC(c2ccccc2)CC1)*; X8 = O=C(c1ccc(N2CCOCC2)nc1)*; Suc = O=C(CCC(=O)[*:2])[*:1]; X11 = O=C(CCCOc1ccc(Br)cc1)*; X25 = COc1cc(CCC(=O)*)ccc1O; X15 = COc1cccc(CCC(=O)*)c1; X10 = Nc1cccc(CCC(=O)*)c1; X29 = Nc1ccc(CCC(=O)*)cc1; X35 = Nc1ccc(CCC(=O)*)cn1; Morpholide = C1CN(*)CCO1; Ms = CS(=O)(=O)*

For one experiment, the target named is PCSK9 (Homo sapiens, UniProt Q8NBP7). The experiment in a line: PCSK9/EGF(A) TR-FRET binding assay. The note with it: TR-FRET; Table 8E, additional compounds; read-out: PCSK9/EGF(A) IC50.
Sequence of PCSK9 (Q8NBP7 153-692): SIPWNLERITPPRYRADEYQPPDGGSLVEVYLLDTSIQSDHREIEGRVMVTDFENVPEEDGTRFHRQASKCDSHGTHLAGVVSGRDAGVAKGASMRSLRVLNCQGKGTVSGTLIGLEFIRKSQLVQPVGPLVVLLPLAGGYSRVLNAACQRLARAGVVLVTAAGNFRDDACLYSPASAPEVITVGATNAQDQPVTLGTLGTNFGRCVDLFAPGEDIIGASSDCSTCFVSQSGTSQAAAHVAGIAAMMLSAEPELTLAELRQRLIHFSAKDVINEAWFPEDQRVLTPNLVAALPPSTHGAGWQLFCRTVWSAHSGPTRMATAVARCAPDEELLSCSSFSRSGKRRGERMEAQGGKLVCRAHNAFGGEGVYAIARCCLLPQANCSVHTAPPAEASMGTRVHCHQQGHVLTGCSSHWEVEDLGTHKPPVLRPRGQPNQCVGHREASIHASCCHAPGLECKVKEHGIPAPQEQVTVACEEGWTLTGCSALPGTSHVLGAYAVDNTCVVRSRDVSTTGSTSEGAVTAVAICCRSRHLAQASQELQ
Sequence of PCSK9 (Q8NBP7 31-152 partner limits assumed): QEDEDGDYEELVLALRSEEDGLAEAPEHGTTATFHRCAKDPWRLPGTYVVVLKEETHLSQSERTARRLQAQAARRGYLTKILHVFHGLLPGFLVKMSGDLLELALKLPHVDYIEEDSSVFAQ
Another experiment has as its target T1, PCSK9Δhelix (Homo sapiens, UniProt Q8NBP7).
T1 construct: Human PCSK9 construct M1-Q692 with an engineered TEV site (residue deletion Y166, R167); made in house; host or cells: CHO
The experiment can be described thus: PCSK9Δhelix/Ab20 TR-FRET binding assay. The note with it: TR-FRET; Table 8E, additional compounds; read-out: PCSK9Δhelix/Ab20 IC50.

T1 sequence (Q8NBP7 with tags, fused parts or gaps limits assumed): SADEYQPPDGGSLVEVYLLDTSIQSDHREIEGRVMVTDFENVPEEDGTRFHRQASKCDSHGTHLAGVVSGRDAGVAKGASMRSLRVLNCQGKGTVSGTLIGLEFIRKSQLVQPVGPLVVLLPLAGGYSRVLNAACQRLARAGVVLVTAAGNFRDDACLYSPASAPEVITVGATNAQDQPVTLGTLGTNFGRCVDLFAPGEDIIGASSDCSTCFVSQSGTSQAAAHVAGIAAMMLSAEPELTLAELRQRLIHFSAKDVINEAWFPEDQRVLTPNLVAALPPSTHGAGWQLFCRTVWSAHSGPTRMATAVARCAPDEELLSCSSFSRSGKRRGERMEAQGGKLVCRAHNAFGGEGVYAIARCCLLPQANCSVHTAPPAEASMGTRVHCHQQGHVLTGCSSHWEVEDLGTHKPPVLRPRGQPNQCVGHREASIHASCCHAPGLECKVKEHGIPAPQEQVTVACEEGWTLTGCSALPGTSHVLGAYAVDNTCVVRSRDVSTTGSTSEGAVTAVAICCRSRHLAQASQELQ
T1 sequence (Q8NBP7 31-152 partner limits assumed): as the sequence (Q8NBP7 31-152 partner limits assumed) above

Take `CC[C@H](C)[C@H](NC(=O)[C@H](CCCNC(=N)N)NC(=O)[C@@H](NC(=O)[C@H](CC(C)C)NC(=O)[C@H](CC(N)=O)NC(=O)[C@H](Cc1c[nH]c2ccccc12)NC(=O)C1CCC(c2ccccc2)CC1)C(C)C)C(=O)NCC(=O)N[C@@H](CC(C)C)C(=O)N[C@H](C(=O)N[C@@H](CCCNC(=N)N)C(N)=O)[C@@H](C)O` (stereo partly shown) [Compound 185] (X39-WNLVRIGLTR-NH2): the figures for the IC50 at PCSK9 and on PCSK9Δhelix were 5.7 µM and 0.39 µM, respectively.

`CC[C@H](C)[C@H](NC(=O)[C@H](CCCCNC(=N)N)NC(=O)[C@@H](NC(=O)[C@H](CC(C)C)NC(=O)[C@H](CC(N)=O)NC(=O)[C@H](Cc1c[nH]c2ccccc12)NC(=O)[C@H]1C[C@@H]1c1cccnc1)C(C)C)C(=O)NCC(=O)N[C@@H](CC(C)C)C(=O)N[C@@H](CC(C)C)C(=O)N[C@@H](CCCNC(=N)N)C(N)=O` [Compound 225] (X17-WNLV[hArg]IGLLR-NH2): the IC50 at PCSK9 stood at 27 µM; on PCSK9Δhelix it was 1.8 µM.

For `CC[C@H](C)[C@H](NC(=O)[C@H](CCCNC(=N)N)NC(=O)[C@@H](NC(=O)[C@H](CC(C)C)NC(=O)[C@H](CC(N)=O)NC(=O)[C@H](Cc1c[nH]c2ccccc12)NC(=O)CCCOc1ccc(Br)cc1)C(C)C)C(=O)NCC(=O)N[C@@H](CC(C)C)C(=O)N[C@H](C(=O)N[C@@H](CCCNC(=N)N)C(N)=O)[C@@H](C)O` [Compound 182] (X11-WNLVRIGLTR-NH2), the results for the IC50 on PCSK9 and at PCSK9Δhelix were 14 µM and 4 µM, respectively.

Turning to `CC[C@H](C)[C@H](NC(=O)[C@H](CCCNC(=N)N)NC(=O)[C@@H](NC(=O)[C@H](CC(C)C)NC(=O)[C@H](CC(N)=O)NC(=O)[C@H](Cc1c[nH]c2ccccc12)NC(=O)CCC(=O)c1ccc(S(C)(=O)=O)cc1)C(C)C)C(=O)NCC(=O)N[C@@H](CC(C)C)C(=O)N[C@H](C(=O)N[C@@H](CCCNC(=N)N)C(N)=O)[C@@H](C)O` [Compound 163] (X43-WNLVRIGLTR-NH2), the figures for the IC50 on PCSK9 and at PCSK9Δhelix were at least 50 µM and 37 µM, respectively.

As for `CC[C@H](C)[C@H](NC(=O)[C@H](CCCNC(=N)N)NC(=O)[C@@H](NC(=O)[C@H](CC(C)C)NC(=O)[C@H](CC(N)=O)NC(=O)[C@H](Cc1c[nH]c2ccccc12)NC(=O)CCC1CCCCC1)C(C)C)C(=O)NCC(=O)N[C@@H](CC(C)C)C(=O)N[C@@H](CC(C)C)C(=O)N[C@@H](CCCNC(=N)N)C(N)=O` [Compound 151] ({Propanoyl(3-cHex)}-WNLVRIGLLR-NH2), the figures for the IC50 at PCSK9 and at PCSK9Δhelix were 6.9 µM and 2.5 µM, respectively.

Regarding `CC[C@H](C)[C@H](NC(=O)[C@H](CCCNC(=N)N)NC(=O)[C@@H](NC(=O)[C@H](CC(C)C)NC(=O)[C@H](CC(N)=O)NC(=O)[C@H](Cc1c[nH]c2ccccc12)NC(=O)CCCCc1ccccc1)C(C)C)C(=O)NCC(=O)N[C@@H](CC(C)C)C(=O)N[C@@H](CC(C)C)C(=O)N[C@@H](CCCNC(=N)N)C(N)=O` [Compound 146] ({Pentanoyl(5-Ph)}-WNLVRIGLLR-NH2), the IC50 is 11 µM at PCSK9 and 1.7 µM at PCSK9Δhelix.

On to `CC[C@H](C)[C@H](NC(=O)[C@H](CCCCNC(=N)N)NC(=O)[C@@H](NC(=O)[C@H](CC(C)C)NC(=O)[C@H](CC(N)=O)NC(=O)[C@H](Cc1c[nH]c2ccccc12)NC(=O)CCc1ccc(O)c(OC)c1)C(C)C)C(=O)NCC(=O)N[C@@H](CC(C)C)C(=O)N[C@@H](CC(C)C)C(=O)N[C@@H](CCCNC(=N)N)C(N)=O` [Compound 213] (X25-WNLV[hArg]IGLLR-NH2), for which the IC50 on PCSK9 is 3.8 µM; on PCSK9Δhelix, 0.2 µM.

Consider `CC[C@H](C)[C@H](NC(=O)[C@H](CCCCNC(=N)N)NC(=O)[C@@H](NC(=O)[C@H](CC(C)C)NC(=O)[C@H](CC(N)=O)NC(=O)[C@H](Cc1c[nH]c2ccccc12)NC(=O)CCc1cccc(OC)c1)C(C)C)C(=O)NCC(=O)N[C@@H](CC(C)C)C(=O)N[C@@H](CC(C)C)C(=O)N[C@@H](CCCNC(=N)N)C(N)=O` [Compound 202] (X15-WNLV[hArg]IGLLR-NH2), for which the IC50 on PCSK9 came to 2.6 µM; on PCSK9Δhelix it was 0.34 µM.

Regarding `CC[C@H](C)[C@H](NC(=O)[C@H](CCCCNC(=N)N)NC(=O)[C@@H](NC(=O)[C@H](CC(C)C)NC(=O)[C@H](CC(N)=O)NC(=O)[C@H](Cc1c[nH]c2ccccc12)NC(=O)CCc1ccc(OC)cc1)C(C)C)C(=O)NCC(=O)N[C@@H](CC(C)C)C(=O)N[C@@H](CC(C)C)C(=O)N[C@@H](CCCNC(=N)N)C(N)=O` [Compound 197] ({Propanoyl(3-(4-MeO-Ph))}-WNLV[hArg]IGLLR-NH2), the IC50 on PCSK9 was 0.97 µM; at PCSK9Δhelix, 0.09 µM.

In the case of `CC[C@H](C)[C@H](NC(=O)[C@H](CCCCNC(=N)N)NC(=O)[C@@H](NC(=O)[C@H](CC(C)C)NC(=O)[C@H](CC(N)=O)NC(=O)[C@H](Cc1c[nH]c2ccccc12)NC(=O)c1ccc(N2CCOCC2)nc1)C(C)C)C(=O)NCC(=O)N[C@@H](CC(C)C)C(=O)N[C@@H](CC(C)C)C(=O)N[C@@H](CCCNC(=N)N)C(N)=O` [Compound 219] (X8-WNLV[hArg]IGLLR-NH2), the IC50 at PCSK9 is 9.9 µM; at PCSK9Δhelix it was 0.68 µM.

`CC[C@H](C)[C@H](NC(=O)[C@H](CCCNC(=N)N)NC(=O)[C@@H](NC(=O)[C@H](CC(C)C)NC(=O)[C@H](CC(N)=O)NC(=O)[C@H](Cc1c[nH]c2ccccc12)NC(=O)CC1CCN(S(C)(=O)=O)CC1)C(C)C)C(=O)NCC(=O)N[C@@H](CC(C)C)C(=O)N[C@@H](CC(C)C)C(=O)N[C@@H](CCCNC(=N)N)C(N)=O` [Compound 133] (Ms-[X14]WNLVRIGLLR-NH2): the figures for the IC50 at PCSK9 and at PCSK9Δhelix were at least 50 µM and 17 µM, respectively.

`CC[C@H](C)[C@H](NC(=O)[C@H](CCCNC(=N)N)NC(=O)[C@@H](NC(=O)[C@H](CC(C)C)NC(=O)[C@H](CC(N)=O)NC(=O)[C@H](Cc1c[nH]c2ccccc12)NC(=O)CCc1c[nH]cn1)C(C)C)C(=O)NCC(=O)N[C@@H](CC(C)C)C(=O)N[C@@H](CC(C)C)C(=O)N[C@@H](CCCNC(=N)N)C(N)=O` [Compound 132] (Desaminohistidyl-WNLVRIGLLR-NH2): the IC50 is at least 50 µM on PCSK9 and 9 µM on PCSK9Δhelix.

In the case of `CC[C@H](C)[C@H](NC(=O)[C@H](CCCNC(=N)N)NC(=O)[C@@H](NC(=O)[C@H](CC(C)C)NC(=O)[C@H](CC(N)=O)NC(=O)[C@H](Cc1c[nH]c2ccccc12)NC(=O)CCc1ccc(N)cc1)C(C)C)C(=O)NCC(=O)N[C@@H](CC(C)C)C(=O)N[C@H](C(=O)N[C@@H](CCCNC(=N)N)C(N)=O)[C@@H](C)O` [Compound 161] (X29-WNLVRIGLTR-NH2), the figures for the IC50 at PCSK9 and on PCSK9Δhelix were at least 50 µM and 5 µM, respectively.

With `CC[C@H](C)[C@H](NC(=O)[C@H](CCCCNC(=N)N)NC(=O)[C@@H](NC(=O)[C@H](CC(C)C)NC(=O)[C@H](CC(N)=O)NC(=O)[C@H](Cc1c[nH]c2ccccc12)NC(=O)CCc1cccc(N)c1)C(C)C)C(=O)NCC(=O)N[C@@H](CC(C)C)C(=O)N[C@@H](CC(C)C)C(=O)N[C@@H](CCCNC(=N)N)C(N)=O` [Compound 215] (X10-WNLV[hArg]IGLLR-NH2), the figures for the IC50 on PCSK9 and on PCSK9Δhelix were 7 µM and 0.48 µM, respectively.

`CC[C@H](C)[C@H](NC(=O)[C@H](CCCCNC(=N)N)NC(=O)[C@@H](NC(=O)[C@H](CC(C)C)NC(=O)[C@H](CC(N)=O)NC(=O)[C@H](Cc1c[nH]c2ccccc12)NC(=O)CCc1ccc(N)nc1)C(C)C)C(=O)NCC(=O)N[C@@H](CC(C)C)C(=O)N[C@@H](CC(C)C)C(=O)N[C@@H](CCCNC(=N)N)C(N)=O` [Compound 216] (X35-WNLV[hArg]IGLLR-NH2): the values for the IC50 at PCSK9 and at PCSK9Δhelix were 6 µM and 0.3 µM, respectively.

On to `CC[C@H](C)[C@H](NC(=O)[C@H](CCCNC(=N)N)NC(=O)[C@@H](NC(=O)[C@H](CC(C)C)NC(=O)[C@H](CC(N)=O)NC(=O)[C@H](Cc1c[nH]c2ccccc12)NC(=O)CCC(=O)N1CCOCC1)C(C)C)C(=O)NCC(=O)N[C@@H](CC(C)C)C(=O)N[C@H](C(=O)N[C@@H](CCCNC(=N)N)C(N)=O)[C@@H](C)O` [Compound 167] ({Morpholide-Suc}-WNLVRIGLTR-NH2), for which the IC50 on PCSK9 is at least 50 µM; at PCSK9Δhelix it was 43 µM.

Regarding `CC[C@H](C)[C@H](NC(=O)[C@H](CCCNC(=N)N)NC(=O)[C@@H](NC(=O)[C@H](CC(C)C)NC(=O)[C@H](CC(N)=O)NC(=O)[C@H](Cc1c[nH]c2ccccc12)NC(=O)CCc1ccc(N)nc1)C(C)C)C(=O)NCC(=O)N[C@@H](CC(C)C)C(=O)N[C@H](C(=O)N[C@@H](CCCNC(=N)N)C(N)=O)[C@@H](C)O` [Compound 171] (X35-WNLVRIGLTR-NH2), the IC50 on PCSK9 is at least 50 µM; on PCSK9Δhelix, 7.7 µM.

Turning to `CC[C@H](C)[C@H](NC(=O)[C@H](CCCCNC(=N)N)NC(=O)[C@@H](NC(=O)[C@H](CC(C)C)NC(=O)[C@H](CC(N)=O)NC(=O)[C@H](Cc1c[nH]c2ccccc12)NC(=O)CCc1ccc(O)c(OC)c1)C(C)C)C(=O)NCC(=O)N[C@@H](CC(N)=O)C(=O)N[C@@H](CCCNC(=N)N)C(N)=O` [Compound 240] (X25-WNLV[hArg]IGNR-NH2), the IC50 at PCSK9 worked out at 31 µM; at PCSK9Δhelix, 0.92 µM.

Regarding `CC[C@H](C)[C@H](NC(=O)[C@H](CCCNC(=N)N)NC(=O)[C@@H](NC(=O)[C@H](CC(C)C)NC(=O)[C@H](CC(N)=O)NC(=O)[C@H](Cc1c[nH]c2ccccc12)NC(=O)CCC(=O)c1ccc(C)cc1)C(C)C)C(=O)NCC(=O)N[C@@H](CC(C)C)C(=O)N[C@H](C(=O)N[C@@H](CCCNC(=N)N)C(N)=O)[C@@H](C)O` [Compound 165] (X37-WNLVRIGLTR-NH2), the IC50 at PCSK9 was at least 50 µM; at PCSK9Δhelix it was 18 µM.

As to `CC[C@H](C)[C@H](NC(=O)[C@H](CCCCNC(=N)N)NC(=O)[C@@H](NC(=O)[C@H](CC(C)C)NC(=O)[C@H](CC(N)=O)NC(=O)[C@H](Cc1c[nH]c2ccccc12)NC(=O)CCc1ccc(Cl)cc1)C(C)C)C(=O)NCC(=O)N[C@@H](CC(C)C)C(=O)N[C@@H](CC(C)C)C(=O)N[C@@H](CCCNC(=N)N)C(N)=O` [Compound 199] ({Propanoyl(3-(4-Cl-Ph))}-WNLV[hArg]IGLLR-NH2), the IC50 came out at 0.98 µM on PCSK9 and 0.2 µM on PCSK9Δhelix.
